# Values of other authors as cited in patent US20200306268A1, “VITAMIN COMPOSITION” (Tempus Bio Technologies LLC, priority 2019, published 2020).
smiles,measurement,setting,value
"C=C1CC[C@H](O)C/C1=C/C=C1\CCC[C@]2(C)[C@@H]([C@H](C)CCCC(C)C)CC[C@@H]12 [vitamin D3, (3β,5Z,7E)-9,10-secocholesta-5,7,10(19)-trien-3-ol]",solubility in MCT oil,MCT oil,very soluble
same,solubility in water,water,not soluble
